From publication PMC11975047, “Antiproliferative effects, mechanism of action and tumor reduction studies in a lung cancer xenograft mouse model of an organometallic gold(I) alkynyl complex” (RSC Medicinal Chemistry, 2025)

What was measured:
[1] = biological target: T1, thioredoxin reductase (TrxR), rat liver (Rattus norvegicus, UniProt O89049); test: DTNB reduction assay with purified rat liver TrxR, reference inhibitor
T1 construct: gene Txnrd1

[2] = biological target: T1, thioredoxin reductase (TrxR), rat liver; test: DTNB reduction assay with purified rat liver TrxR, […] min preincubation, […] nm

T1 sequence (O89049 whole entry): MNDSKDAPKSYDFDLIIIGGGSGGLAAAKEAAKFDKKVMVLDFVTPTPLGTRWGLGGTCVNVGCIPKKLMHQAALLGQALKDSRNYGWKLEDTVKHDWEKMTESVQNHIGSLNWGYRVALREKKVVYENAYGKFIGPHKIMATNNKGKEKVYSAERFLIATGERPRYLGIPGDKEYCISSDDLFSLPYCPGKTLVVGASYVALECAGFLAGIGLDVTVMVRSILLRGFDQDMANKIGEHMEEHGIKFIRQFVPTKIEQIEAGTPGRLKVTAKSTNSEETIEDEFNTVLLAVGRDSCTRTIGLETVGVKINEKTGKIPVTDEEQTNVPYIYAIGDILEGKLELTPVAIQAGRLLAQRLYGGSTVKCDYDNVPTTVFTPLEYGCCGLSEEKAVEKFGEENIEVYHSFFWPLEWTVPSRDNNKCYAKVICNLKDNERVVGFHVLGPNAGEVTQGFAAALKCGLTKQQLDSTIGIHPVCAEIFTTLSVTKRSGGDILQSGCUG

Row | Structure (SMILES) | IC50 [1] | IC50 [2]
1 | CC[P](CC)(CC)=[Au][S][C@@H]1O[C@H](COC(C)=O)[C@@H](OC(C)=O)[C@H](OC(C)=O)[C@H]1OC(C)=O [AF, Auranofin] | 30 nM | –
2 | CC[P+](CC)(CC)[Au-][C]#Cc1ccc(OC)cc1 [compound 1, complex 1] | – | 50 ± 10 nM
